Columns and labels:
[1] = molecular target: Ribosomal protein S6 kinase alpha-3 (Homo sapiens, UniProt P51812); assay: Selectivity interaction (Millipore kinase profiler) EUB0000124b RPS6KA3; details: at 10 µM
[2] = Selectivity interaction (KinomeScan (DiscoverX)) EUB0000595a CDK2H; details: at 10 µM
[3] = molecular target: T1, Serine/threonine-protein kinase tousled-like 1 (Homo sapiens) (UniProt Q9UKI8); assay: Selectivity interaction (KinomeScan (DiscoverX)) EUB0000092b TLK1; details: at 10 µM
T1 sequence (whole entry): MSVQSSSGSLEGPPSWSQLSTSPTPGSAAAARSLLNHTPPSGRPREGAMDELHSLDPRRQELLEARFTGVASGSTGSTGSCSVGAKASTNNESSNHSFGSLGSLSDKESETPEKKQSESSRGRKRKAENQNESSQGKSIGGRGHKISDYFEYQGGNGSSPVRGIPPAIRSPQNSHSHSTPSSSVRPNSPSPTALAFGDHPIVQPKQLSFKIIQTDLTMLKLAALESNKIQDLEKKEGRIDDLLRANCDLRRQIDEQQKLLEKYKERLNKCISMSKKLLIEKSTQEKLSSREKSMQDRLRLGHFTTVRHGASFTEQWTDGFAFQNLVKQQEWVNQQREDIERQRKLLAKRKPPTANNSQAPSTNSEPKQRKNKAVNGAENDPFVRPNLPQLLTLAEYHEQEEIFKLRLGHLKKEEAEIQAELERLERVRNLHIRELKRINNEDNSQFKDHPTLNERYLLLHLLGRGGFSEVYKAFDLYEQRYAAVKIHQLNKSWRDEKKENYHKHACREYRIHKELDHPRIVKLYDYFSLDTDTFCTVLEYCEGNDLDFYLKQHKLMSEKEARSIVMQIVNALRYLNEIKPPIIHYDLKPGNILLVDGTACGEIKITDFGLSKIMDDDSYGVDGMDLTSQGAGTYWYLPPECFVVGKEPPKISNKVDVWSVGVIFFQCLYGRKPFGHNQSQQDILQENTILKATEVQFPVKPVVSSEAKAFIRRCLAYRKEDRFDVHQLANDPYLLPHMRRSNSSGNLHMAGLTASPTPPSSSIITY

[4] = molecular target: Transient receptor potential cation channel subfamily M member 6 (Homo sapiens) (UniProt Q9BX84); assay: Selectivity interaction (KinomeScan (DiscoverX)) EUB0000045b TRPM6
[5] = molecular target: Casein kinase I isoform gamma-3 (Homo sapiens) (UniProt Q9Y6M4); assay: Selectivity interaction (KinomeScan (DiscoverX)) EUB0000618a CSNK1G3; details: at 10 µM
[6] = molecular target: T2, Serine/threonine-protein kinase Nek11 (Homo sapiens) (UniProt Q8NG66); assay: Selectivity interaction (KinomeScan (DiscoverX)) EUB0000607a NEK11; details: at 10 µM
T2 sequence (whole entry): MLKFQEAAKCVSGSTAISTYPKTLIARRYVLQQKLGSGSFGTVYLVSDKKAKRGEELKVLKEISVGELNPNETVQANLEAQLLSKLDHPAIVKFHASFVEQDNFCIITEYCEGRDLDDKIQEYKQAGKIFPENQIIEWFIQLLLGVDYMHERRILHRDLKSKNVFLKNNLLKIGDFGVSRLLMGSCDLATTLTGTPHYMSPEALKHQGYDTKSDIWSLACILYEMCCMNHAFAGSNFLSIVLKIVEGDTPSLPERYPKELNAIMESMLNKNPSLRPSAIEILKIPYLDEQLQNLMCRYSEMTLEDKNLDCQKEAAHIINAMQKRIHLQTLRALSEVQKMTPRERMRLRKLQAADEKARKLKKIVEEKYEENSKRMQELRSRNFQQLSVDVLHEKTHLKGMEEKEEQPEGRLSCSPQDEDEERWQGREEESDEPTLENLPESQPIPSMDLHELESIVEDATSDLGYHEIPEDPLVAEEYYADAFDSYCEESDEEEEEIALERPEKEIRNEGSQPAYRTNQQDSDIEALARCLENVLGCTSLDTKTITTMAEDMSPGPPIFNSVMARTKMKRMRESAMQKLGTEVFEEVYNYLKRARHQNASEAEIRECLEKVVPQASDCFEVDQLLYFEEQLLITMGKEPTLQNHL

[7] = molecular target: Phosphatidylinositol 4-phosphate 5-kinase type-1 alpha (Homo sapiens) (UniProt Q99755); assay: Selectivity interaction (KinomeScan (DiscoverX)) EUB0001868a PIP5K1A; details: at 1 µM
[8] = molecular target: T3, Serine/threonine-protein kinase TAO1 (Homo sapiens) (UniProt Q7L7X3); assay: Selectivity interaction (LanthaScreen Eu Kinase Binding Assay) EUB0001632a TAOK1; details: at 10 µM
T3 sequence (whole entry): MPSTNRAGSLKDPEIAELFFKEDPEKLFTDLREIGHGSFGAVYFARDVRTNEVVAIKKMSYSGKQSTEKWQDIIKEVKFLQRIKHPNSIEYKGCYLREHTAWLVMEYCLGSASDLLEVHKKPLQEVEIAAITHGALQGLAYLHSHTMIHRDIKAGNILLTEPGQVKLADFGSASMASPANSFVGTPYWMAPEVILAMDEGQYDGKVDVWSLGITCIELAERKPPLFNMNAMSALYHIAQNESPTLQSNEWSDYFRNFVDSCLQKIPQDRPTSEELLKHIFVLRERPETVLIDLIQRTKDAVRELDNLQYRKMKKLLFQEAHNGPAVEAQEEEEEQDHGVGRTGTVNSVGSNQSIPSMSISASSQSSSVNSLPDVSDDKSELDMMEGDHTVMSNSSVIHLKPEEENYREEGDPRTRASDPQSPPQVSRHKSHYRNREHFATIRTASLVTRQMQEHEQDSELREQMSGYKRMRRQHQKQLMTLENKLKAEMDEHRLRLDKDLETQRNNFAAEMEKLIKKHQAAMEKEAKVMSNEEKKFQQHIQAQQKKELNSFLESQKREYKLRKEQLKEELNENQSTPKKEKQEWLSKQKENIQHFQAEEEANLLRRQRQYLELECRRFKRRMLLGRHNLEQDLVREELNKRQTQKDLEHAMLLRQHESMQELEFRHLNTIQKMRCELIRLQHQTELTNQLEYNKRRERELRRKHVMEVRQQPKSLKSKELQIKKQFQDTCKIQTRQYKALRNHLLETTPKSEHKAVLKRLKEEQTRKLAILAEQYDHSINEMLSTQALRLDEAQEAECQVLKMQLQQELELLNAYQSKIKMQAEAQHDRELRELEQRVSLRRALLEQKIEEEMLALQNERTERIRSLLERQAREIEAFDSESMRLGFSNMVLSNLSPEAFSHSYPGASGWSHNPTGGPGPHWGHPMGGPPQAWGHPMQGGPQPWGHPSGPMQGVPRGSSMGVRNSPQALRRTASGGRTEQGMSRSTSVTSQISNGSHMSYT

[9] = molecular target: Tyrosine-protein kinase JAK1 (Homo sapiens, UniProt P23458); assay: Selectivity interaction (ProQinase) EUB0000171b JAK1
Chain of Tyrosine-protein kinase JAK1 (P23458 whole entry): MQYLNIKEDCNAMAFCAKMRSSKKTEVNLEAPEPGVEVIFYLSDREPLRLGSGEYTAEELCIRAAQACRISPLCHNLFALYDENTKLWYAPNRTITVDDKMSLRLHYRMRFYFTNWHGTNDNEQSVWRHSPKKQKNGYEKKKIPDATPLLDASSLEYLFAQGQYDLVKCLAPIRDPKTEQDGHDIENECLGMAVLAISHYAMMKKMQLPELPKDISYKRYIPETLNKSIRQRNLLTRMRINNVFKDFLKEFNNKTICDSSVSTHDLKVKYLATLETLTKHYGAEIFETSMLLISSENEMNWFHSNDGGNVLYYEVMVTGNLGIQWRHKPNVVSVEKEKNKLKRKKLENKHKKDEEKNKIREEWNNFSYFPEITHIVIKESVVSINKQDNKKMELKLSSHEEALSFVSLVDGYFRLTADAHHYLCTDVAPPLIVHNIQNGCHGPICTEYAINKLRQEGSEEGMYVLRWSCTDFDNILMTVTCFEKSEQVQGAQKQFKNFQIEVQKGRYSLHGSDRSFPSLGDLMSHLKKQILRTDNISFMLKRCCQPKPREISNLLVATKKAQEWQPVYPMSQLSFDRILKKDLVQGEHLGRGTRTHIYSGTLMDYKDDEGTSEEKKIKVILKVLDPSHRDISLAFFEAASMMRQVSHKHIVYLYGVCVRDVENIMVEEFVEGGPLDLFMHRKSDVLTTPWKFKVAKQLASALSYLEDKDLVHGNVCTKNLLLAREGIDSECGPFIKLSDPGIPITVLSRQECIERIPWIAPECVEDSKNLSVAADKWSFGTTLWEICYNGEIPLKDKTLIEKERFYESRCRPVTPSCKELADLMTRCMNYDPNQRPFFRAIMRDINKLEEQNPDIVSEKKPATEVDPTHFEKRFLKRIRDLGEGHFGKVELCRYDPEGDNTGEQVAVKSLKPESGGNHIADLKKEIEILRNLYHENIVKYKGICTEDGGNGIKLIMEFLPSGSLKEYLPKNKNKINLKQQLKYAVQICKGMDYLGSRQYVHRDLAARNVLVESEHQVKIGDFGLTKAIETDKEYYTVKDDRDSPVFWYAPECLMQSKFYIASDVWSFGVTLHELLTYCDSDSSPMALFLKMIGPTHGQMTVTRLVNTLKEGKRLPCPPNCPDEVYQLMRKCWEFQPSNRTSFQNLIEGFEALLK

Chain of Transient receptor potential cation channel subfamily M member 6 (Homo sapiens) (Q9BX84 whole entry, canonical isoform): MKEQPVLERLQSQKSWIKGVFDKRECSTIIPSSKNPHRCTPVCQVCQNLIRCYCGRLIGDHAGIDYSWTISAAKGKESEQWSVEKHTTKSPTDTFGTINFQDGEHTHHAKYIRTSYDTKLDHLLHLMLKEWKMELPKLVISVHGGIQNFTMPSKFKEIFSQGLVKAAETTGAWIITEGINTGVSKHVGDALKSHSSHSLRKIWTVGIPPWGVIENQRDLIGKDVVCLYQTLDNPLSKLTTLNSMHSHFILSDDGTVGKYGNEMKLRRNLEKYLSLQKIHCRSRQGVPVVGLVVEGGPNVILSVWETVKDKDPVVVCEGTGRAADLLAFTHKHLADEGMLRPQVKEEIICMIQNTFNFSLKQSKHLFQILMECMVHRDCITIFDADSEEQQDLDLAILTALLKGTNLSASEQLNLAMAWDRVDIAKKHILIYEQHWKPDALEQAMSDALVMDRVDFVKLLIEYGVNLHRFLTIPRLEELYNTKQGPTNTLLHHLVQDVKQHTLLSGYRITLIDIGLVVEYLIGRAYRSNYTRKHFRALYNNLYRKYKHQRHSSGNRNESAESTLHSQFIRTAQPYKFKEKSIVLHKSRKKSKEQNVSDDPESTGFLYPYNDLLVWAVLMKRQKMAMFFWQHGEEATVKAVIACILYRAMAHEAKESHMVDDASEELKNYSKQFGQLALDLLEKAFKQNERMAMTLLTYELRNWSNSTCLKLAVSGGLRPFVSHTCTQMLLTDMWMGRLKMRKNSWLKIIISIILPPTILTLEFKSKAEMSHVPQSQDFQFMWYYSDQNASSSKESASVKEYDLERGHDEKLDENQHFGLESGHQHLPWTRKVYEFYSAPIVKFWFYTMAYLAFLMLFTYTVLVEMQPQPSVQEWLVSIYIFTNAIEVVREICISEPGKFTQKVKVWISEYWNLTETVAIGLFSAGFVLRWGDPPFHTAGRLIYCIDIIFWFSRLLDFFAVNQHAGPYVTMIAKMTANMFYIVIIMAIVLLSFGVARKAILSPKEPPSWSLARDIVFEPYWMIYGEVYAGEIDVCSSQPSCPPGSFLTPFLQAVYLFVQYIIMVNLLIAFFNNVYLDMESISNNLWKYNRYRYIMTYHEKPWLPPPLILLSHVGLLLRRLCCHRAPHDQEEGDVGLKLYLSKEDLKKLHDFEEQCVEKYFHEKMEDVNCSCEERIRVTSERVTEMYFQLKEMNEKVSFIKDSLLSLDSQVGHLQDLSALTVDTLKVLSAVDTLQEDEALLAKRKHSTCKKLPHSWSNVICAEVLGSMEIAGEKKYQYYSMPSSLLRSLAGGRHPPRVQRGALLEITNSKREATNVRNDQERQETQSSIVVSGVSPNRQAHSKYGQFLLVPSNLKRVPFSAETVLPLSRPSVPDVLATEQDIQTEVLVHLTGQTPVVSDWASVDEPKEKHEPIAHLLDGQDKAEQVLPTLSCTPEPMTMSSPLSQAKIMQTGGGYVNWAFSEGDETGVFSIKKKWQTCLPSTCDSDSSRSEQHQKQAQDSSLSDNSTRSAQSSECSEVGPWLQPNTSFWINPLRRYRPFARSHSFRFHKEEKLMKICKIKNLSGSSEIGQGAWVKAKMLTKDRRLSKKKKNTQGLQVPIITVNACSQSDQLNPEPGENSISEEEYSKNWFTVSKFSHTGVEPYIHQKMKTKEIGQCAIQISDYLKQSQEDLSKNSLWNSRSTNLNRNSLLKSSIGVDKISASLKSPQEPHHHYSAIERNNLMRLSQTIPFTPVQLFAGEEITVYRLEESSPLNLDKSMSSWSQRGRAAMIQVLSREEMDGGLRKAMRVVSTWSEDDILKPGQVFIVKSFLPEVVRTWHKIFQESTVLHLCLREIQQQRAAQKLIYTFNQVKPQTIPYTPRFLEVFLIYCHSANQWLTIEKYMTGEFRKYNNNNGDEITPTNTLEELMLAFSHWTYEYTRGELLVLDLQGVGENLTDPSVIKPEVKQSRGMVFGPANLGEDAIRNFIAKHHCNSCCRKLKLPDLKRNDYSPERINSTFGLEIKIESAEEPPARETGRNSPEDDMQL
Chain of Casein kinase I isoform gamma-3 (Homo sapiens) (Q9Y6M4 whole entry, looked up, canonical isoform): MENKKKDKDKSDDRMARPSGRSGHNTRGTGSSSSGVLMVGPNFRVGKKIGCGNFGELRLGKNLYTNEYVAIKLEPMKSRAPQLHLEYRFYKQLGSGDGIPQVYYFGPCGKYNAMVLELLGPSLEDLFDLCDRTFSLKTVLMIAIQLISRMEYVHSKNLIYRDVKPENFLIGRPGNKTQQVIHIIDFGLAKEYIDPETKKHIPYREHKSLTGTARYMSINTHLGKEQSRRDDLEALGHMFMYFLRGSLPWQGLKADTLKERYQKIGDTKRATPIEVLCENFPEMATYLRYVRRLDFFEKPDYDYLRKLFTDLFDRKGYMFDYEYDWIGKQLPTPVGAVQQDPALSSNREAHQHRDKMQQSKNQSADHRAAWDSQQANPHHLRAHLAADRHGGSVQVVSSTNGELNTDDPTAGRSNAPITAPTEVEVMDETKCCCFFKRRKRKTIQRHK
Chain of Ribosomal protein S6 kinase alpha-3 (P51812 whole entry): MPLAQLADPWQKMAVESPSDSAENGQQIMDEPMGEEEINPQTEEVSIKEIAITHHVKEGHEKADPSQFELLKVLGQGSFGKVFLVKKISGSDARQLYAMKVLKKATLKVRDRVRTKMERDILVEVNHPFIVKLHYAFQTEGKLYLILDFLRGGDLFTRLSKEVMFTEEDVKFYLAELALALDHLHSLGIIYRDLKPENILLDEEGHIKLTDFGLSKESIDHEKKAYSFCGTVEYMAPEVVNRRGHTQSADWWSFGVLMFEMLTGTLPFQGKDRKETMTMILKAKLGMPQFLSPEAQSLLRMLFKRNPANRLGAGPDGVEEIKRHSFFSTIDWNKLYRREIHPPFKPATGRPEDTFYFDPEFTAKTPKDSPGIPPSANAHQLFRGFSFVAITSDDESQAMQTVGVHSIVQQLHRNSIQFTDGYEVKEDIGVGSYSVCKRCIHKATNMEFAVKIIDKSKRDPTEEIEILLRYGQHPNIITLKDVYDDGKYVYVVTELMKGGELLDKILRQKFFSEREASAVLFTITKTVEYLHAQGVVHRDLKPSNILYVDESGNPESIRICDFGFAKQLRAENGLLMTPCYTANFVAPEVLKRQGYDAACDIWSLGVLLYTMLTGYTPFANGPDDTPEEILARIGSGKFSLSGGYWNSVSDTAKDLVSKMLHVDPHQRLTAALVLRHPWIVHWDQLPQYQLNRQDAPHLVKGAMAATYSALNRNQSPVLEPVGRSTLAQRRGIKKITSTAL
Chain of Phosphatidylinositol 4-phosphate 5-kinase type-1 alpha (Homo sapiens) (Q99755 whole entry): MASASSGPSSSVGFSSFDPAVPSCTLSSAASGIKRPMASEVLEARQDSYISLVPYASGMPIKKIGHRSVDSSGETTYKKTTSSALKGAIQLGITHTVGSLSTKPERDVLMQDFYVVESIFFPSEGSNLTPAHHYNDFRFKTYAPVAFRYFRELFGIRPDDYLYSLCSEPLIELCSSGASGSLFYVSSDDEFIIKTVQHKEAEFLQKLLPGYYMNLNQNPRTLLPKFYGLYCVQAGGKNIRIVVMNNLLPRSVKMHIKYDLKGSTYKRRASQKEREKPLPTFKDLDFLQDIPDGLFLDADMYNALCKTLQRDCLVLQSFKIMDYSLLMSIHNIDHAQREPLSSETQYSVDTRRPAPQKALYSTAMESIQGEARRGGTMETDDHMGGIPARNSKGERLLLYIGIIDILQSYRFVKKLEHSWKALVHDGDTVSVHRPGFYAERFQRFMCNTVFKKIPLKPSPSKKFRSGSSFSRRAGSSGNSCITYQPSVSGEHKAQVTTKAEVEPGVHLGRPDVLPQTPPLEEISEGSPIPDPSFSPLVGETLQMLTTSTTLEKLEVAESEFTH

CC(=O)Nc1cccc(-n2c(=O)n(C3CC3)c(=O)c3c(Nc4ccc(I)cc4F)n(C)c(=O)c(C)c32)c1
% of control [1]: 94%

COCC(=O)NC/C=C/c1ccc2ncnc(Nc3ccc(Oc4ccc(C)nc4)c(C)c3)c2c1 [CP-724714]
% of control [2]: 100%

CCC(=O)N1CCN(c2ccc(-n3c(=O)ccc4cnc5ccc(-c6cnc7ccccc7c6)cc5c43)cc2C(F)(F)F)CC1
% of control [3]: 100%

C=CC(=O)Nc1cc(-n2c(=O)ccc3cnc4ccc(-c5ccc(NS(C)(=O)=O)cc5)cc4c32)ccc1C
% of control ([4]; at 1 µM): 100% | % of control ([4]; at 10 µM): 100%

O[C@H]1CC[C@H](Nc2ncc3nc(Nc4c(F)cc(F)cc4F)n([C@H]4CCOC4)c3n2)CC1
% of control [5]: 100%

CNC(=O)Nc1ccc(-c2nc(N3CC4CCC(C3)O4)c3cnn(C4CCC5(CC4)OCCO5)c3n2)cc1
% of control [6]: 99%

Cc1cc(-c2ccnc(Nc3cnn(C)c3)n2)ccc1CNC(=O)N1CC(OC(C)C)C1
% of control [7]: 28%

Cn1cc(-n2cnc3c(NCc4nc5cc(Cl)c(Cl)cc5[nH]4)nc(N4CCOCC4)nc32)cn1
% of inhibition [8]: 31.8%

C=CC(=O)Nc1cccc(C(=O)Nc2ccc(Nc3cc(-c4[nH]c(SC)nc4C)ccn3)cc2)c1
% of control ([9]; at 1 µM): 98% | % of control ([9]; at 5 µM): 96%

From ChEMBL document CHEMBL5465560, “Selectivity Literature for EUbOPEN Chemogenomic Library” (2024)
